Source: the supplement of paper PMC10307832

Key:
Assay in all cases: relative viability (nuclei count vs DMSO), 5 days (fraction); higher = more cells survive
[1] = compound: COc1cc2ncn(-c3cc(OCc4ccccc4C(F)(F)F)c(C(N)=O)s3)c2cc1OC + CC(C)C[C@H](NC(=O)[C@H](Cc1ccccc1)NC(=O)c1cnccn1)B(O)O [Bortezomib] (partner 0.002 µM)
Outline: (§1)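 Lung cancer cell lines in 1536-well plates got either a single drug or a fixed anchor-drug dose together with five library-drug doses (not always all listed) in √10 steps, by pin tool, on the day after seeding. Nuclei were counted after 5 days, and relative viability is the treated-to-vehicle ratio of nuclei counts. Values are medians of duplicate plates.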

[2] = compound: COc1cc2ncn(-c3cc(OCc4ccccc4C(F)(F)F)c(C(N)=O)s3)c2cc1OC + CS(=O)(=O)N1CCN(Cc2cc3nc(-c4cccc5[nH]ncc45)nc(N4CCOCC4)c3s2)CC1 [Pictilisib] (partner 1 µM)
Outline: as §1

[3] = compound: COc1cc2ncn(-c3cc(OCc4ccccc4C(F)(F)F)c(C(N)=O)s3)c2cc1OC + O=C(c1cc(Cc2n[nH]c(=O)c3ccccc23)ccc1F)N1CCN(C(=O)C2CC2)CC1 [Olaparib] (partner 8 µM)
Outline: as §1

[4] = compound: COc1cc2ncn(-c3cc(OCc4ccccc4C(F)(F)F)c(C(N)=O)s3)c2cc1OC + CC(=O)Nc1cccc(-n2c(=O)n(C3CC3)c(=O)c3c(Nc4ccc(I)cc4F)n(C)c(=O)c(C)c32)c1 [Trametinib] (partner 0.02 µM)
Outline: as §1

Cell Line | relative viability ([1]; first compound 0.05 µM) | relative viability ([1]; first compound 0.1581 µM) | relative viability ([1]; first compound 0.5 µM) | relative viability ([1]; first compound 1.581 µM) | relative viability ([1]; first compound 5 µM) | relative viability ([2]; first compound 0.05 µM) | relative viability ([2]; first compound 0.1581 µM) | relative viability ([2]; first compound 0.5 µM) | relative viability ([2]; first compound 1.581 µM) | relative viability ([2]; first compound 5 µM) | relative viability ([3]; first compound 0.05 µM) | relative viability ([3]; first compound 0.1581 µM) | relative viability ([3]; first compound 0.5 µM) | relative viability ([3]; first compound 1.581 µM) | relative viability ([3]; first compound 5 µM) | relative viability ([4]; first compound 0.05 µM) | relative viability ([4]; first compound 0.1581 µM) | relative viability ([4]; first compound 0.5 µM) | relative viability ([4]; first compound 1.581 µM) | relative viability ([4]; first compound 5 µM)
HCC-44 | 0.949 | 0.874 | 0.714 | 0.127 | 0.107 | 0.76 | 0.601 | 0.632 | 0.104 | 0.11 | 1.06 | 1.04 | 0.877 | 0.39 | 0.372 | 0.977 | 0.935 | 0.874 | 0.387 | 0.225
HCC-78 | 0.472 | 0.496 | 0.39 | 0.238 | 0.227 | 0.221 | 0.188 | 0.186 | 0.206 | 0.186 | 0.939 | 0.927 | 0.645 | 0.601 | 0.468 | 0.949 | 0.54 | 0.544 | 0.642 | 0.682
HCC-366 | 1.12 | 1.04 | 0.646 | 0.018 | 0.0097 | 0.149 | 0.12 | 0.0681 | 0.0359 | 0.015 | 0.204 | 0.273 | 0.0764 | 0.0193 | 0.0147 | 0.114 | 0.35 | 0.12 | 0.0256 | 0.0157
HCC-827 | 1.06 | 0.98 | 1.02 | 0.776 | 0.508 | 0.917 | 1.13 | 0.968 | 0.77 | 0.56 | 0.575 | 0.547 | 0.452 | 0.306 | 0.179 | 0.479 | 0.421 | 0.473 | 0.428 | 0.453
HOP-62 | 0.977 | 1.2 | 0.507 | 0.178 | 0.124 | 0.753 | 0.805 | 0.566 | 0.123 | 0.0836 | 0.387 | 0.38 | 0.302 | – | 0.116 | 0.35 | 0.284 | 0.348 | 0.163 | 0.136
IA-LM | 0.747 | 0.479 | 0.0694 | 0.0622 | 0.0584 | 0.46 | 0.262 | 0.0711 | 0.0659 | 0.0766 | 0.75 | 0.602 | 0.123 | 0.0768 | 0.0783 | – | – | – | – | –
LC-2-ad | 0.866 | 0.516 | 0.399 | 0.108 | 0.106 | 0.383 | 0.108 | 0.0797 | 0.0935 | 0.0834 | 0.431 | 0.593 | 0.466 | 0.173 | 0.176 | 1.02 | 0.821 | 0.662 | 0.211 | 0.188
LK-2 | – | – | – | – | – | 0.548 | 0.566 | 0.307 | 0.263 | 0.306 | 0.681 | 0.345 | 0.215 | 0.16 | 0.0981 | 0.719 | 0.457 | 0.283 | 0.151 | 0.145
NCI-H358 | – | – | – | – | – | 0.362 | 0.347 | 0.293 | 0.148 | 0.14 | 0.552 | 0.516 | 0.195 | 0.0846 | 0.078 | 0.146 | 0.114 | 0.104 | 0.116 | 0.096
NCI-H522 | – | – | – | – | – | – | – | – | – | – | 0.51 | 0.714 | 0.621 | 0.517 | 0.337 | 0.654 | 0.748 | 0.657 | 0.673 | 0.335
NCI-H1299 | 0.985 | 1.01 | 0.856 | 0.263 | 0.675 | 0.77 | 0.699 | 0.18 | 0.142 | 0.132 | 0.962 | 0.921 | 0.431 | 0.223 | 0.19 | – | – | – | – | –
NCI-H1395 | – | – | – | – | – | 0.609 | 0.686 | 0.461 | 0.635 | 0.438 | 0.441 | 0.476 | 0.414 | 0.326 | 0.314 | 1.11 | 0.977 | 0.828 | 0.39 | 0.287
NCI-H1563 | 0.985 | 1.01 | 0.807 | 0.676 | 0.592 | 0.684 | 0.607 | 0.683 | 0.55 | 0.5 | – | – | – | – | – | – | – | – | – | –
NCI-H1648 | – | – | – | – | – | – | – | – | – | – | 0.74 | 0.596 | 0.366 | 0.242 | 0.261 | 0.488 | 0.419 | 0.295 | 0.293 | 0.251
NCI-H1703 | 0.384 | 0.339 | 0.172 | 0.0978 | 0.173 | 0.256 | 0.227 | 0.2 | 0.126 | 0.172 | 0.416 | 0.616 | 0.488 | 0.261 | 0.066 | – | – | – | – | –
NCI-H1793 | – | – | – | – | – | 0.272 | 0.308 | 0.179 | 0.192 | 0.228 | 0.216 | 0.837 | 0.436 | 0.177 | 0.117 | 0.253 | 0.371 | 0.373 | 0.298 | 0.185
NCI-H1944 | – | – | – | – | – | 0.368 | 0.363 | 0.307 | 0.206 | 0.166 | 0.415 | 0.445 | 0.304 | 0.152 | 0.122 | 0.413 | 0.42 | 0.337 | 0.189 | 0.123
NCI-H2170 | – | – | – | – | – | 0.342 | 0.318 | 0.188 | 0.192 | 0.156 | 0.566 | 0.444 | 0.166 | 0.168 | 0.148 | 0.96 | 0.885 | 0.246 | 0.159 | 0.153
NCI-H2342 | – | – | – | – | – | – | – | – | – | – | 0.389 | 0.437 | 0.407 | 0.388 | 0.421 | 0.794 | 0.757 | 0.696 | 0.607 | 0.598
SK-MES-1 | – | – | – | – | – | 0.343 | 0.414 | 0.292 | 0.132 | 0.213 | 0.62 | 0.526 | 0.309 | 0.165 | 0.186 | 0.578 | 0.623 | 0.538 | 0.177 | 0.228
SW 900 | – | – | – | – | – | – | – | – | – | – | 0.778 | 0.892 | 0.601 | 0.201 | 0.171 | 0.639 | 0.778 | 0.649 | 0.433 | 0.124
